# Results from PMC6222669, “The Inhibitory Effect of Flavonoid Aglycones on the Metabolic Activity of CYP3A4 Enzyme” (Molecules : A Journal of Synthetic Chemistry and Natural …, 2018).
# Read-outs that look alike come from different tables or passages of the source.
# Assays:
# [1] = target: T1, CYP3A4 (Homo sapiens, UniProt P08684); test: Metabolism dependent inhibition of CYP3A4 (testosterone 6β-hydroxylation, preincubation with NADPH generating system); settings: for activity at 15 min, 1 µM / inhibition at 15 min, 1 µM: human, pH 7.4, probe testosterone (200 µM; 6β-hydroxylation); for type of inhibition: concluded from metabolism dependent, time dependent and direct inhibition assays
# [2] = target: T1, CYP3A4; test: in vitro; settings: pH 7.4
# [3] = tested on: CYP3A4; settings: cited from earlier work
# [4] = target: T1, CYP3A4; test: Time dependent inhibition of CYP3A4 (preincubation without NADPH); settings: 1 µM flavonoid; for time dependent inhibition observed or not: confirmed in direct inhibition assay; for Residual CYP3A4 activity: time dependent inhibition assay, preincubation without NADPH
# Procedure: (§1) Incubation mixture contained 5 pmol of the CYP3A4 enzyme.
# (§2) If metabolism-dependent inhibition was determined, time dependent inhibition was assessed by preincubating flavonoids and enzymes, after which residual activity was determined by adding NADPH generating system along with substrate. In this instance, the direct inhibition was also tested without preincubation, i.e., NADPH generating system, was added to incubation mixture containing flavonoid and substrate.
# (§3) All incubations were conducted in triplicate.
# [5] = tested on: CYP3A4 induction; design: method as in ref 64 (Li et al.); settings: through PXR, CAR and AhR; ref 64 (Li et al.); cited from earlier work
# [6] = tested on: CYP3A4; design: method as in ref 65 (von Moltke et al.); settings: ref 65 (von Moltke et al.); read-out: concentration giving 50% inhibition; cited from earlier work
# [7] = target: T1, CYP3A4
# [8] = target: T1, CYP3A4; design: purchased Thermo Fisher Scientific (Waltham, MA, USA); host or cells: recombinant baculovirus system (baculosomes); method as in ref 54 (Obermeier et al.); settings: nifedipine oxidation, human liver microsomes, uncompetitive; ref 54 (Obermeier et al.); read-out: inhibition constant; cited from earlier work
# [9] = target: T1, CYP3A4; design: purchased Thermo Fisher Scientific (Waltham, MA, USA); host or cells: recombinant baculovirus system (baculosomes); method as in ref 55 (Takanaga et al.); settings: testosterone marker substrate; human liver microsomes and recombinant CYP3A4; ref 55 (Takanaga et al.); cited from earlier work
# [10] = target: T1, CYP3A4; test: Direct inhibition of CYP3A4 (no preincubation)
# Procedure: as §1, §2, §3
# [11] = tested on: CYP3A4; design: method as in ref 60 (Ding et al.); settings: HepG2 cell line; ref 60 (Ding et al.); cited from earlier work
# [12] = tested on: porcine cytochrome p450; settings: cited from earlier work; for Ki: competitive, ref 61 (Ekstrand et al.), read-out: inhibition constant
# [13] = tested on: CYP3A4; settings: cited from earlier work; remark: listed apart in the source
# T1 sequence (P08684 2-503 limits assumed): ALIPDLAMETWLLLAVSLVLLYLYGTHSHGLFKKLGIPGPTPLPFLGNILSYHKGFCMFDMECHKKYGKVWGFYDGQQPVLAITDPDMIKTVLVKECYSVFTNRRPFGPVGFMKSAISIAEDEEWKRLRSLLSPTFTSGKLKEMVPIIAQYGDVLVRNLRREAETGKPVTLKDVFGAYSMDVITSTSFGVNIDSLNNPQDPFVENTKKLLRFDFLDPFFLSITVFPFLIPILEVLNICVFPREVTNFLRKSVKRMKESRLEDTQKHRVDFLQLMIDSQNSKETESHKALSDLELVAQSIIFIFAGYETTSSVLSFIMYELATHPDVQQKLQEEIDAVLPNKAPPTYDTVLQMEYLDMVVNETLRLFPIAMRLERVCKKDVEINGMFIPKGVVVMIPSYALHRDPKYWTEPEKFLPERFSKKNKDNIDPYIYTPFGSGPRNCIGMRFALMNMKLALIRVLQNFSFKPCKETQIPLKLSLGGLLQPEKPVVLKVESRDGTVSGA
compound,measurement,setting,value
O=C1C[C@@H](c2ccc(O)cc2)Oc2cc(O)cc(O)c21 [Naringenin],"activity at 15 min, 1 µM",[1],65 ± 24%
O=c1c(O)c(-c2ccc(O)c(O)c2)oc2cc(O)cc(O)c12 [Quercetin],"activity at 15 min, 1 µM",[1],126 ± 10%
COc1ccc([C@@H]2CC(=O)c3c(O)cc(O)cc3O2)cc1O [Hesperetin],"activity at 15 min, 1 µM",[2],49 ± 19%
O=c1cc(-c2ccccc2)oc2ccccc12 [Flavone],effect on 1′-hydroxilation of midazolam,[3],"stimulate, rather than inhibit"
same,"activity at 15 min, 1 µM",[1],81 ± 16%
O=c1c(O)c(-c2ccc(O)cc2)oc2cc(O)cc(O)c12 [Kaempferol],"activity at 15 min, 1 µM",[1],101 ± 14%
COc1cc(OC)c2c(=O)cc(-c3ccccc3)oc2c1 [Chrysin-dimethylether],time dependent inhibition observed or not,[4],No time dependent inhibition
same,type of inhibition,[1],pure irreversible inhibition
same,"activity at 15 min, 1 µM",[1],61 ± 21%
COc1ccc(-c2oc3cc(O)cc(O)c3c(=O)c2O)cc1O [Tamarixetin],influence on CYP3A4 induction,[5],no influence
same,IC50,[6],< 10 µM
same,"activity at 15 min, 1 µM",[1],195 ± 29%
O=c1cc(-c2ccc(O)c(O)c2)oc2cc(O)cc(O)c12 [Luteolin],"activity at 15 min, 1 µM",[1],112 ± 31%
O=c1cc(-c2ccccc2)oc2cc(O)ccc12 [7-hydroxyflavone],"activity at 15 min, 1 µM",[1],78 ± 14%
O=c1c(O)c(-c2ccc(O)cc2O)oc2cc(O)cc(O)c12 [Morin],"activity at 15 min, 1 µM",[1],122 ± 8%
O=C1C[C@@H](c2ccccc2)Oc2cc(O)cc(O)c21 [Pinocembrin],time dependent inhibition observed or not,[4],No time dependent inhibition
same,type of inhibition,[1],pure irreversible inhibition
same,"activity at 15 min, 1 µM",[1],50 ± 15%
same,"inhibition at 15 min, 1 µM",[1],50%
COc1cc(O)c2c(c1)O[C@H](c1ccc(O)cc1)CC2=O [Sakuranetin],"activity at 15 min, 1 µM",[2],94 ± 45%
COc1ccc(-c2cc(=O)c3c(OC)c(OC)c(OC)c(OC)c3o2)cc1 [Tangeretin],time dependent inhibition observed or not,[4],No time dependent inhibition
same,type of inhibition,[7],pure irreversible inhibition
same,effect on 1′-hydroxilation of midazolam,[3],"stimulate, rather than inhibit"
same,"activity at 15 min, 1 µM",[2],42 ± 3%
same,Ki,[8],72 µM
same,influence on CYP3A4 activity,[9],no influence
O=c1c(-c2ccc(O)cc2)coc2cc(O)cc(O)c12 [Genistein],"activity at 15 min, 1 µM",[1],72 ± 24%
COc1cc(O)c2c(c1)OC(c1ccccc1)CC2=O (stereo not drawn) [Pinocembrin-7-methylether],"activity at 15 min, 1 µM",[1],83 ± 2%
COc1ccc(-c2cc(=O)c3c(O)cc(O)cc3o2)cc1 [Acacetin],Residual CYP3A4 activity,[4],57 ± 10%
same,residual enzyme activity,"[10]; 1 µM flavonoid, direct inhibition assay, no preincubation",46 ± 6%
same,type of inhibition,[1],combined irreversible and reversible inhibition
same,"activity at 15 min, 1 µM",[1],5 ± 4%
same,"inhibition at 15 min, 1 µM",[1],95%
"COc1cc(-c2oc3cc(O)cc(O)c3c(=O)c2O)ccc1O [Isohramnetin, Isorhamnetin]",time dependent inhibition observed or not,[4],No time dependent inhibition
same,change in activity of CYP3A4,[11],did not observe change in activity
same,Ki,[12]; female pigs,94 µM
same,Ki,[12]; male pigs,71 µM
same,competitive inhibition at low concentration,[12]; under 16 µM concentration,no competitive inhibition was observed
same,type of inhibition,[1],pure irreversible inhibition
same,"activity at 15 min, 1 µM",[1],73 ± 6%
O=c1c(O)c(-c2cc(O)c(O)c(O)c2)oc2cc(O)cc(O)c12 [Myricetin],"activity at 15 min, 1 µM",[1],133 ± 35%
COc1cc(O)c2c(=O)cc(-c3ccccc3)oc2c1 [Techtocrysin],"activity at 15 min, 1 µM",[1],102 ± 15%
"O=c1c(O)c(-c2ccccc2)oc2cc(O)ccc12 [3,7-dihydroxyflav., 3,7-dihydroxyflavon]","activity at 15 min, 1 µM",[1],91 ± 27%
O=c1cc(-c2ccccc2)oc2ccc(O)cc12 [6-hydroxyflavone],"activity at 15 min, 1 µM",[1],83 ± 14%
COc1cc(O)c2c(=O)c(O)c(-c3ccc(O)c(O)c3)oc2c1 [Rhamnetin],"activity at 15 min, 1 µM",[1],117 ± 84%
O=c1cc(-c2ccccc2)oc2cc(O)cc(O)c12 [Chrysin],Residual CYP3A4 activity,[4],45 ± 3%
same,residual enzyme activity,"[10]; human, 30 min, 1 µM, pH 7.4",54 ± 23%
same,type of inhibition,[7],combined irreversible and reversible inhibition
same,effect on 1′-hydroxilation of midazolam,[3],inhibition of CYP3A4 activity was not observed
same,"activity at 15 min, 1 µM",[2],17 ± 3%
COc1cc(O)c2c(=O)c(-c3ccc(O)cc3)coc2c1 [Prunetin],"activity at 15 min, 1 µM",[1],74 ± 14%
"O=c1c(O)c(-c2ccccc2)oc2ccc(O)cc12 [3,6-dihydroxyflav., 3,6-dihydroxyflavon]","activity at 15 min, 1 µM",[1],100 ± 14%
O=c1c(O)c(-c2ccccc2)oc2cc(O)cc(O)c12 [Galangin],"activity at 15 min, 1 µM",[1],48 ± 24%
O=c1cc(-c2ccc(O)cc2)oc2cc(O)cc(O)c12 [Apigenin],Residual CYP3A4 activity,[4],34 ± 10%
same,residual enzyme activity,"[10]; human, 30 min, 1 µM, pH 7.4",35 ± 18%
same,type of inhibition,[7],reversible inhibition
same,"activity at 15 min, 1 µM",[2],24 ± 3%
same,"inhibition at 15 min, 1 µM",[2],76%
